Laboratory results taken from patent US12152048B2, “Nitroxoline prodrug and use thereof” (Jiangsu Yahong Meditech Co., Ltd., priority 2018, dated 2024).
Converted amounts (≈) assume the structure as drawn.

Key:
[1] = Determination of water solubility in phosphate buffer; assay type: physicochemical; details: for solubility at 24 h: thermodynamic from solid; for water solubility compared with nitroxoline: conclusion in words
Source text: Experimental instruments: 96-well filter plate (MSHVN4510 or MSHVN4550, Millipore); electronic digital display vortex mixer (MS3 Digital, IKA); multi-purpose vacuum pump (circulating water type, SHB-111, Zhengzhou Greatwall Scientific Industrial and Trade Co., Ltd.); balance (XSLT05, Mettler-Toledo); comfortable mixer (Eppendorf AG 22331 Hamburg, Eppendorf); liquid chromatography (LC-3AD, Shimadzu); mass spectrometry (API4000, Applied Biosystems, USA); sample injector (Anylytics AG System, CTC). Nitroxoline was prepared according to the method disclosed in Journal of Heterocyclic Chemistry, 1971, vol. 8, p 821 by Wisdom Pharmaceutical Co., Ltd.
Experimental process: 500 μL of phosphate buffer (pH=1.2, 4.5, 6.8 or 7.4) were added to a glass flask, to which 2 mg of compound powder were added. The flask was sealed with a cap and shaked on a mixer (VORTEX-GENIE2) at room temperature for 24 hours. The solution was subjected to vacuum filtration, and the filtrate was processed to determine the compound concentration by LC/MS/MS.

[2] = Stability in human liver microsome; details: 2 μM, 37° C., 30 minutes
Description: Experimental instruments: thermostatic shaker (SHA-B, Guohua Electric Appliance Co., Ltd.); centrifuge (5810R, Eppendorf); mass spectrometry (API4000, Applied Biosystems, USA); liquid chromatography (LC-30AD, Shimadzu); sample injector (CTC Analytics AG System, CTC).
Experimental process: 25 μg/mL alamethicin (Aldrich), 5 mM magnesium chloride and 0.5 mg/mL microsome (XENOTECH) were added to 100 mM phosphate buffer to obtain a coenzyme-free reaction solution. A portion of the coenzyme-free reaction solution was added with 1 mM reductive nicotinamide adenine dinucleotide phosphate (Aldrich) and 5 mM uridine diphosphate glucuronic acid (Aldrich) to obtain a coenzyme-containing reaction solution. The working solution of the compound of the present invention was added to the two reaction solutions so that the final concentration of the compound was 2 μM. Immediately after mixing well, 50 μL of the solution were taken out as the 0 minute sample, and 50 μL of the remaining sample were taken out after incubating at 37° C. for 30 minutes. All the samples taken out were immediately processed to precipitate protein, and centrifuged to obtain a supernate for the determination of the compound concentration by LC/MS/MS.

[3] = Stability in rat liver microsome; details: 2 μM, 37° C., 30 minutes
[4] = Stability in dog liver microsome; details: 2 μM, 37° C., 30 minutes
[5] = Stability in mouse liver microsome; assay type: in vitro ADME; details: 2 μM, 37° C., 30 minutes
[6] = aqueous buffer, phosphate buffer pH 7.4, room temperature
[7] = simulated gastric fluid, phosphate buffer pH 1.2, room temperature

CC(=O)OCOc1ccc([N+](=O)[O-])c2cccnc12 [Compound 1, (5-nitroquinolin-8-yloxy)methyl acetate]
solubility at 24 h [1, 6]: 91.1 µg/mL | Percentage of the compound remaining in human liver microsome ([2]; with coenzyme): 0.24% | Percentage of the compound remaining in human liver microsome ([2]; without coenzyme): 0.76% | Percentage of the compound remaining in rat liver microsome ([3]; with coenzyme): 0.15% | Percentage of the compound remaining in rat liver microsome ([3]; without coenzyme): 0.27% | Percentage of the compound remaining in dog liver microsome ([4]; with coenzyme): 0.42% | Percentage of the compound remaining in dog liver microsome ([4]; without coenzyme): 0.73% | Percentage of the compound remaining in mouse liver microsome ([5]; with coenzyme): 0.16% | Percentage of the compound remaining in mouse liver microsome ([5]; without coenzyme): 0.27%

O=C(O)CCC(=O)OCOc1ccc([N+](=O)[O-])c2cccnc12 [Compound 8, 4-((5-nitroquinolin-8-yloxy)methoxy)-4-oxobutanoic acid]
solubility at 24 h [1, 6]: < 0.44 µg/mL

O=C(CCCCCCCO)OCOc1ccc([N+](=O)[O-])c2cccnc12 [Compound 10, (5-nitroquinolin-8-yloxy)methyl 8-hydroxyoctanoate]
solubility at 24 h [1, 6]: 39.1 µg/mL (≈ 108 µM) | Percentage of the compound remaining in human liver microsome ([2]; with coenzyme): 0.01% | Percentage of the compound remaining in human liver microsome ([2]; without coenzyme): 0.04% | Percentage of the compound remaining in rat liver microsome ([3]; with coenzyme): 0.02% | Percentage of the compound remaining in rat liver microsome ([3]; without coenzyme): 0.03% | Percentage of the compound remaining in dog liver microsome ([4]; with coenzyme): 0.01% | Percentage of the compound remaining in dog liver microsome ([4]; without coenzyme): 0.04%

COC(=O)CCCCC(=O)OCOc1ccc([N+](=O)[O-])c2cccnc12 [Compound 11, methyl (5-nitroquinolin-8-yloxy)methyl adipate]
solubility at 24 h [1, 6]: 66.9 µg/mL (≈ 185 µM) | Percentage of the compound remaining in human liver microsome ([2]; with coenzyme): 0.01% | Percentage of the compound remaining in human liver microsome ([2]; without coenzyme): 0.01% | Percentage of the compound remaining in rat liver microsome ([3]; with coenzyme): 0.05% | Percentage of the compound remaining in rat liver microsome ([3]; without coenzyme): 0.03% | Percentage of the compound remaining in dog liver microsome ([4]; with coenzyme): 0.01% | Percentage of the compound remaining in dog liver microsome ([4]; without coenzyme): 0.04%

CC(C)(C)OC(=O)NCCCCCCC(=O)OCOc1ccc([N+](=O)[O-])c2cccnc12 [Compound 12, (5-nitroquinolin-8-yloxy)methyl 7-(tert-butoxycarbonylamino)heptanoate]
solubility at 24 h [1, 6]: 1.85 µg/mL (≈ 4.13 µM) | Percentage of the compound remaining in human liver microsome ([2]; with coenzyme): 0.00% | Percentage of the compound remaining in human liver microsome ([2]; without coenzyme): 0.03% | Percentage of the compound remaining in rat liver microsome ([3]; with coenzyme): 0.00% | Percentage of the compound remaining in rat liver microsome ([3]; without coenzyme): 0.02% | Percentage of the compound remaining in dog liver microsome ([4]; with coenzyme): 0.00% | Percentage of the compound remaining in dog liver microsome ([4]; without coenzyme): 0.02%

CC(C)(C)OC(=O)N[C@@H](Cc1ccccc1)C(=O)OCOc1ccc([N+](=O)[O-])c2cccnc12 [Compound 13, (S)-(5-Nitroquinolin-8-yloxy)methyl 2-(tert-butoxycarbonylamino)-3-phenylpropionate]
Percentage of the compound remaining in human liver microsome ([2]; with coenzyme): 0.01% | Percentage of the compound remaining in human liver microsome ([2]; without coenzyme): 0.02% | Percentage of the compound remaining in rat liver microsome ([3]; with coenzyme): 0.01% | Percentage of the compound remaining in rat liver microsome ([3]; without coenzyme): 0.02% | Percentage of the compound remaining in dog liver microsome ([4]; with coenzyme): 0.02% | Percentage of the compound remaining in dog liver microsome ([4]; without coenzyme): 0.02%

CC(=O)N[C@@H](CC(C)C)C(=O)NCC(=O)OCOc1ccc([N+](=O)[O-])c2cccnc12 [Compound 15, (S)-(5-nitroquinolin-8-yloxy)methyl 2-(2-acetamido-4-methylpentanamido)acetate]
solubility at 24 h [1, 6]: 205 µg/mL (≈ 475 µM)

CSC[C@H](NC(C)=O)C(=O)OCOc1ccc([N+](=O)[O-])c2cccnc12 [Compound 16, (R)-(5-nitroquinolin-8-yloxy)methyl 2-acetamido-3-(methylthio)propionate]
solubility at 24 h [1, 6]: 254 µg/mL (≈ 669 µM) | solubility at 24 h [1, 7]: 443 µg/mL (≈ 1170 µM)

CC(C)C(=O)N1CCC[C@@H]1C(=O)OCOc1ccc([N+](=O)[O-])c2cccnc12 [Compound 23, (R)-(5-nitroquinolin-8-yloxy)methyl 1-isopropionylpyrrolidine-2-carboxylate]
solubility at 24 h [1, 6]: 818 µg/mL (≈ 2110 µM) | water solubility compared with nitroxoline [1]: increased by several times | solubility at 24 h [1, 7]: 945 µg/mL (≈ 2440 µM)

CC(C)(C)C(=O)N1CCC[C@@H]1C(=O)OCOc1ccc([N+](=O)[O-])c2cccnc12 [Compound 24, (R)-(5-nitroquinolin-8-yloxy)methyl 1-pivaloylpyrrolidine-2-carboxylate]
solubility at 24 h [1, 6]: 73.6 µg/mL (≈ 183 µM) | solubility at 24 h [1, 7]: 942 µg/mL (≈ 2350 µM)

O=C(OCOc1ccc([N+](=O)[O-])c2cccnc12)[C@@H]1CCCN1C(=O)c1ccccn1 [Compound 25, (S)-(5-nitroquinolin-8-yloxy)methyl 1-pyridineformylpyrrolidine-2-carboxylate]
solubility at 24 h [1, 6]: 275 µg/mL (≈ 651 µM)

CC(=O)N[C@@H](Cc1ccc(O)cc1)C(=O)N1CCC[C@H]1C(=O)OCOc1ccc([N+](=O)[O-])c2cccnc12 [Compound 28, (S)-(5-nitroquinolin-8-yloxy)methyl 1-((S)-2-acetamido-3-(4-hydroxyphenyl)propionyl)pyrrolidine-2-carboxylate]
solubility at 24 h [1, 6]: 25.1 µg/mL (≈ 48.1 µM) | solubility at 24 h [1, 7]: 342 µg/mL (≈ 654 µM)

CC(=O)N[C@@H](CO)C(=O)N1CCC[C@H]1C(=O)OCOc1ccc([N+](=O)[O-])c2cccnc12 [Compound 30, (S)-(5-nitroquinolin-8-yloxy)methyl 1-((S)-2-acetamido-3-hydroxypropionyl)pyrrolidine-2-carboxylate]
solubility at 24 h [1, 6]: < 0.25 µg/mL | water solubility compared with nitroxoline [1]: increased by several times | solubility at 24 h [1, 7]: 940 µg/mL (≈ 2110 µM)

COCC(=O)OCOc1ccc([N+](=O)[O-])c2cccnc12 [Compound 31, (5-nitroquinolin-8-yloxy)methyl 2-methoxyacetate]
solubility at 24 h [1, 6]: 10.8 µg/mL (≈ 37.1 µM)

O=C(OCOc1ccc([N+](=O)[O-])c2cccnc12)C1CCC1 [Compound 32, (5-nitroquinolin-8-yloxy)methyl cyclobutanecarboxylate]
solubility at 24 h [1, 6]: 28.4 µg/mL (≈ 94.1 µM)

CC(=O)Oc1ccccc1C(=O)OCOc1ccc([N+](=O)[O-])c2cccnc12 [Compound 34, (5-nitroquinolin-8-yloxy)methyl 2-acetoxybenzoate]
solubility at 24 h [1, 6]: 6.67 µg/mL (≈ 17.4 µM)

O=C(COc1ccc(Cl)cc1Cl)OCOc1ccc([N+](=O)[O-])c2cccnc12 [Compound 35, (5-nitroquinolin-8-yloxy)methyl 2-(2,4-dichlorophenoxy)acetate]
solubility at 24 h [1, 6]: 0.04 µg/mL (≈ 0.0945 µM)

O=C(CN1CCOCC1)OCOc1ccc([N+](=O)[O-])c2cccnc12 [Compound 36, (5-nitroquinolin-8-yloxy)methyl 2-morpholinoacetate]
solubility at 24 h [1, 6]: 298 µg/mL (≈ 858 µM)

CCCCCC(=O)OCOc1ccc([N+](=O)[O-])c2cccnc12 [Compound 40, (5-nitroquinolin-8-yloxy)methyl hexanoate]
solubility at 24 h [1, 6]: 7.4 µg/mL (≈ 23.2 µM)

CCCCCCCC(=O)OCOc1ccc([N+](=O)[O-])c2cccnc12 [Compound 41, (5-nitroquinolin-8-yloxy)methyl octanoate]
solubility at 24 h [1, 6]: < 0.4 µg/mL

CCCCCCCCCC(=O)OCOc1ccc([N+](=O)[O-])c2cccnc12 [Compound 42, (5-nitroquinolin-8-yloxy)methyl decanoate]
solubility at 24 h [1, 6]: < 0.26 µg/mL

CCCCCCCCCCCC(=O)OCOc1ccc([N+](=O)[O-])c2cccnc12 [Compound 43, (5-nitroquinolin-8-yloxy)methyl dodecanoate]
solubility at 24 h [1, 6]: < 0.25 µg/mL

O=C1CCCC(Oc2ccc([N+](=O)[O-])c3cccnc23)O1 (stereo not drawn) [Compound 44, 6-(5-nitroquinolin-8-yloxy)-tetrahydropyran-2-one]
solubility at 24 h [1, 6]: 19.9 µg/mL (≈ 68.9 µM)

O=C(CCCCC(=O)OCOc1ccc([N+](=O)[O-])c2cccnc12)OCOc1ccc([N+](=O)[O-])c2cccnc12 [Compound 46, bis(5-nitroquinolin-8-yloxy)-methyl adipate]
Percentage of the compound remaining in human liver microsome ([2]; with coenzyme): 0.00% | Percentage of the compound remaining in human liver microsome ([2]; without coenzyme): 0.06% | Percentage of the compound remaining in rat liver microsome ([3]; with coenzyme): 0.00% | Percentage of the compound remaining in rat liver microsome ([3]; without coenzyme): 0.05% | Percentage of the compound remaining in dog liver microsome ([4]; with coenzyme): 0.01% | Percentage of the compound remaining in dog liver microsome ([4]; without coenzyme): 0.03%

CCC(=O)OC(C)Oc1ccc([N+](=O)[O-])c2cccnc12 (stereo not drawn) [Compound 48, 1-(5-nitroquinolin-8-yloxy)ethyl propionate]
Percentage of the compound remaining in human liver microsome ([2]; with coenzyme): 0.08% | Percentage of the compound remaining in human liver microsome ([2]; without coenzyme): 0.10% | Percentage of the compound remaining in rat liver microsome ([3]; with coenzyme): 0.06% | Percentage of the compound remaining in rat liver microsome ([3]; without coenzyme): 0.03% | Percentage of the compound remaining in dog liver microsome ([4]; with coenzyme): 0.03% | Percentage of the compound remaining in dog liver microsome ([4]; without coenzyme): 0.02% | Percentage of the compound remaining in mouse liver microsome ([5]; with coenzyme): 0.03% | Percentage of the compound remaining in mouse liver microsome ([5]; without coenzyme): 0.05%

CC(C)OC(=O)OCOP(=O)(O)OCOc1ccc([N+](=O)[O-])c2cccnc12 [Compound 72, (hydroxy((5-nitroquinolin-8-yloxy)methoxy)phosphoryloxy)methyl isopropyl carbonate]
solubility at 24 h [1, 6]: 1040 µg/mL (≈ 2490 µM) | water solubility compared with nitroxoline [1]: increased by several times

Cc1oc(=O)oc1COc1ccc([N+](=O)[O-])c2cccnc12 [Compound 77, 4-methyl-5-((5-nitroquinolin-8-yloxy)methyl)-1,3-dioxol-2-one]
solubility at 24 h [1, 6]: 21.2 µg/mL (≈ 70.3 µM)
